In US12180187B2, “1-phenyl-5-azinylpyrazolyl-3-oxyalkyl acids and their use for controlling unwanted plant growth” (BAYER AKTIENGESELLSCHAFT, priority 2019, dated 2024):

Key:
ALOMY [1] = test: Pre-emergence action against ALOMY, 1280 g/ha; format: in vivo, Alopecurus myosuroides; conditions: visual scoring after about 3 weeks vs untreated controls, 100% = plants have died, 0% = like control plants
Outline: (§1)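 Each pot was doubly sown in sandy loam and covered, then its soil surface was treated with compound suspension or emulsion containing 0.5% additive at 600 L/ha water. Plants grew in a greenhouse; effect was rated visually as percentages versus controls after about 3 weeks.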

DIGSA [2] = test: Pre-emergence action against DIGSA, 1280 g/ha; format: in vivo, Digitaria sanguinalis; conditions: visual scoring after about 3 weeks vs untreated controls, 100% = plants have died, 0% = like control plants
Outline: as §1

ABUTH = test: Pre-emergence action against ABUTH, 1280 g/ha; format: in vivo, Abutilon theophrasti; conditions: scored visually after about 3 weeks vs untreated controls (100% = plants have died)
Outline: as §1

AVEFA = test: Pre-emergence action at 320 g/ha against AVEFA; format: in vivo; conditions: visual scoring after about 3 weeks vs untreated controls; for pest or weed control at 320 g/ha: Avena fatua, 504 h
Outline: (§2)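 Application: aqueous WP or EC with 0.5% additive on soil covering seeds, 600 l/ha. Read-out: visual percent damage after ~3 weeks in greenhouse, untreated pots as reference.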

VIOTR [3] = test: Pre-emergence action at 320 g/ha against VIOTR; format: in vivo, Viola tricolor; conditions: dosage 320 g/ha; for pest or weed control at 320 g/ha: Viola tricolor, 504 h
Outline: as §2

LOLRI = test: Post-emergence action against LOLRI, 1.28 kg/ha; format: in vivo, Lolium rigidum; conditions: dosage 1280 g/ha, visual rating about 3 weeks after treatment vs untreated controls
Outline: (§3)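 Weeds grown in sandy loam in a greenhouse were sprayed at the one-leaf stage, 2–3 weeks after sowing, with WP or EC formulations in water containing 0.5% additive at 600 L/ha. About 3 weeks later, damage was scored visually versus untreated controls (0% = like control, 100% = dead).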

SETVI = test: Post-emergence action against SETVI, 1.28 kg/ha; format: in vivo, Setaria viridis; conditions: dosage 1280 g/ha, visual rating about 3 weeks after treatment vs untreated controls
Outline: as §3

ALOMY [4] = test: Post-emergence action against ALOMY, 320 g/ha; format: in vivo, Alopecurus myosuroides; conditions: dosage 320 g/ha, visual rating about 3 weeks after treatment vs untreated controls (100% = plants died)
Outline: (§4)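 Weeds were sown in sandy loam, grown in a greenhouse and sprayed at the one-leaf stage, 2 to 3 weeks after sowing, with WP or EC formulations as aqueous suspension or emulsion plus 0.5% additive at 600 l/ha water. Activity was rated visually after about 3 weeks against untreated controls (100% = plants dead, 0% = like control).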

DIGSA [5] = test: Post-emergence action at 320 g/ha against DIGSA; format: in vivo, Digitaria sanguinalis; conditions: dosage 320 g/ha, visual rating about 3 weeks after treatment vs untreated controls (100% = plants died); for pest or weed control at 320 g/ha: Digitaria sanguinalis, 504 h
Outline: as §4

AMARE [6] = test: Post-emergence action at 320 g/ha against AMARE; format: in vivo, Amaranthus retroflexus; conditions: visual rating about 3 weeks after treatment vs untreated controls; for pest or weed control at 320 g/ha: Amaranthus retroflexus, 504 h
Outline: as §4

POLCO = test: Post-emergence action at 320 g/ha against POLCO; format: in vivo, Fallopia convolvulus (Polygonum convolvulus); conditions: visual rating about 3 weeks after treatment vs untreated controls; for pest or weed control at 320 g/ha: Fallopia convolvulus, 504 h
Outline: as §4

VIOTR [7] = test: Post-emergence action at 320 g/ha against VIOTR; format: in vivo, Viola tricolor; conditions: visual rating about 3 weeks after treatment vs untreated controls; for pest or weed control at 320 g/ha: Viola tricolor, 504 h
Outline: as §4

AMARE [8] = test: Post-emergence action against AMARE, 1.28 kg/ha; format: in vivo, Amaranthus retroflexus; conditions: dosage 1280 g/ha, visual rating about 3 weeks after treatment vs untreated controls (100% = plants died)
Outline: as §3

VERPE = test: Post-emergence action against VERPE, 1.28 kg/ha; format: in vivo, Veronica persica; conditions: dosage 1280 g/ha, visual rating about 3 weeks after treatment vs untreated controls (100% = plants died); for pest or weed control at 1280 g/ha: Veronica persica, 504 h
Outline: as §3

PHBPU = test: Post-emergence action at 320 g/ha against PHBPU; format: in vivo; conditions: visual rating about 3 weeks after treatment vs untreated controls
Outline: as §4

ECHCG = test: Post-emergence action at 320 g/ha against ECHCG; format: in vivo, Echinochloa crus-galli; conditions: dosage 320 g/ha, visual rating about 3 weeks after treatment vs untreated controls (100% = plants died)
Outline: as §4

Row | Compound | Pre-emergence action against ALOMY (ALOMY [1]) [%] | Pre-emergence action against DIGSA (DIGSA [2]) [%] | Pre-emergence action against ABUTH (ABUTH) [%] | pest or weed control at 320 g/ha (AVEFA) [%] | pest or weed control at 320 g/ha (VIOTR [3]) [%] | Post-emergence action against LOLRI (LOLRI) [%] | Post-emergence action against SETVI (SETVI) [%] | Post-emergence action against ALOMY (ALOMY [4]) [%] | pest or weed control at 320 g/ha (DIGSA [5]) [%] | pest or weed control at 320 g/ha (POLCO) [%] | pest or weed control at 320 g/ha (VIOTR [7]) [%] | Post-emergence action against AMARE (AMARE [8]) [%] | Post-emergence action against PHBPU in % (PHBPU) [%] | Pre-emergence action against AVEFA in % (AVEFA) [%] | Pre-emergence action against VIOTR in % (VIOTR [3]) [%] | Post-emergence action against VERPE (VERPE) [%] | Post-emergence action at 320 g/ha against ECHCG in % (ECHCG) [%] | Post-emergence action against AMARE in % (AMARE [6]) [%] | Post-emergence action against POLCO in % (POLCO) [%] | Post-emergence action against VIOTR in % (VIOTR [7]) [%] | further results
1 | COC(=O)[C@@H](C)Oc1nn(-c2ccccc2F)c(-c2cncnc2)c1Br [VI-011, Methyl (2R)-2-{[4-bromo-1-(2-fluorophenyl)-5-(pyrimidin-5-yl)-1H-pyrazol-3-yl]oxy}propanoate] | 90 | 100 | 90 | 80 | 100 | 100 | 100 | 90 | 90 | 80 | 90 | – | – | – | – | – | – | – | – | – | pest or weed control at 320 g/ha (AMARE [6]): 80%
2 | COC(=O)COc1nn(-c2ccccc2F)c(-c2cncnc2)c1Br [VI-004, Methyl {[4-bromo-1-(2-fluorophenyl)-5-(pyrimidin-5-yl)-1H-pyrazol-3-yl]oxy}acetate] | – | – | 90 | 90 | 100 | 100 | 90 | – | 90 | 80 | 80 | 100 | 80 | – | – | – | – | – | – | – | pest or weed control at 1280 g/ha (VERPE): 90%; pest or weed control at 320 g/ha (AMARE [6]): 90%
3 | COC(=O)C(C)Oc1nn(-c2ccccc2)c(-c2ccc(F)nc2)c1Br (stereo not drawn) [VII-014] | 90 | 100 | – | – | – | 90 | – | 90 | – | – | – | 90 | – | 90 | 100 | 90 | 80 | 90 | 80 | 90 | Post-emergence action at 320 g/ha against DIGSA in % (DIGSA [5]): 80%
4 | COC(=O)COc1nn(-c2ccc(F)cc2)c(-c2ccc(F)nc2)c1Br [VII-002] | – | – | – | – | – | – | 90 | 100 | – | – | – | – | 90 | 80 | – | – | 90 | – | 80 | 90 | –
5 | COC(=O)COc1nn(-c2ccccc2)c(-c2ccc(F)nc2)c1Br [VII-018] | 100 | 100 | 90 | – | – | 90 | 100 | 90 | – | – | – | – | 90 | 80 | 90 | 90 | – | 90 | 90 | 90 | –
6 | CCOC(=O)COc1nn(-c2ccc(F)cc2F)c(-c2ccc(F)nc2)c1Cl [VII-016] | – | – | 100 | – | – | 90 | 90 | 90 | – | – | – | 90 | 90 | 90 | 90 | 90 | 80 | 90 | 90 | 80 | –
7 | CCC(Oc1nn(-c2ccccc2F)c(-c2ccc(F)nc2)c1Br)C(=O)OC (stereo not drawn) [VII-029] | 90 | 100 | 90 | – | – | 100 | – | 100 | – | – | – | 90 | – | – | 100 | 90 | 80 | – | 80 | 100 | –
8 | COC(=O)COc1nn(-c2ccccc2F)c(-c2ccc(F)nc2)c1F [VII-040] | 100 | 100 | – | – | – | – | 90 | 100 | – | – | – | 90 | 90 | 100 | 100 | 100 | 80 | 90 | 90 | 90 | –
9 | COC(=O)C(C)Oc1nn(-c2ccccc2)c(-c2ccc(F)nc2)c1Br (stereo not drawn) [VII-026] | 100 | 100 | 90 | – | – | – | – | 100 | – | – | – | 90 | – | – | 100 | 100 | – | 90 | 90 | 90 | Post-emergence action at 320 g/ha against DIGSA in % (DIGSA [5]): 90%
10 | CCOC(=O)COc1nn(-c2ccccc2F)c(-c2ccnc(F)c2)c1Br [VIII-003, Ethyl {[4-bromo-1-(2-fluorophenyl)-5-(2-fluoropyridin-4-yl)-1H-pyrazol-3-yl]oxy}acetate] | – | – | – | 90 | 100 | 100 | 100 | 90 | 80 | 80 | 80 | 90 | 80 | – | – | – | 80 | – | – | – | pest or weed control at 1280 g/ha (VERPE): 90%
